Test results as given in PubChem BioAssay (NCI).
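GI50 = concentration required for 50% inhibition of growth. The concentration for full growth arrest is given as TGI.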

How the values were obtained:
Test in all cases: NCI tumour cell line growth inhibition, 384-well format; in the data active = GI50 below about 0.43 µM; inactive = the rest
PC-3 prostate = tested on: PC-3 prostate
HS 578T breast = tested on: HS 578T breast
NCI-H522 lung = tested on: NCI-H522 lung
UO-31 renal = tested on: UO-31 renal
MOLT-4 leukemia = tested on: MOLT-4 leukemia
SK-MEL-5 melanoma = tested on: SK-MEL-5 melanoma
CCRF-CEM leukemia = tested on: CCRF-CEM leukemia
KM12 colon = tested on: KM12 colon
RPMI-8226 leukemia = tested on: RPMI-8226 leukemia
UACC-257 melanoma = tested on: UACC-257 melanoma
SK-OV-3 ovarian = tested on: SK-OV-3 ovarian
ACHN renal = tested on: ACHN renal
EKVX NSCLC = tested on: EKVX NSCLC
NCI-H23 lung = tested on: NCI-H23 lung
IGROV1 ovarian = tested on: IGROV1 ovarian
RXF 393 renal = tested on: RXF 393 renal
NCI-H226 lung = tested on: NCI-H226 lung
SR leukemia = tested on: SR leukemia
OVCAR-5 ovarian = tested on: OVCAR-5 ovarian
HOP-92 NSCLC = tested on: HOP-92 NSCLC
BT-549 breast = tested on: BT-549 breast
DU-145 prostate = tested on: DU-145 prostate
NCI-H460 NSCLC = tested on: NCI-H460 NSCLC
SF-539 CNS = tested on: SF-539 CNS
UACC-62 melanoma = tested on: UACC-62 melanoma
MALME-3M melanoma = tested on: MALME-3M melanoma
SW-620 colon = tested on: SW-620 colon
U251 glioblastoma = tested on: U251 glioblastoma
786-0 renal = tested on: 786-0 renal
HOP-62 NSCLC = tested on: HOP-62 NSCLC
NCI/ADR-RES ovarian = tested on: NCI/ADR-RES ovarian
HL-60(TB) leukemia = tested on: HL-60(TB) leukemia
M14 melanoma = tested on: M14 melanoma
SN12C renal = tested on: SN12C renal
LOX IMVI melanoma = tested on: LOX IMVI melanoma
MDA-MB-435 melanoma = tested on: MDA-MB-435 melanoma
NCI-H322M lung = tested on: NCI-H322M lung
T-47D breast = tested on: T-47D breast
OVCAR-3 ovarian = tested on: OVCAR-3 ovarian
OVCAR-8 ovarian = tested on: OVCAR-8 ovarian
A498 renal = tested on: A498 renal
SNB-75 CNS = tested on: SNB-75 CNS
HCT-15 colon = tested on: HCT-15 colon
SNB-19 CNS = tested on: SNB-19 CNS
HCT-116 colon = tested on: HCT-116 colon
SF-295 CNS = tested on: SF-295 CNS
SK-MEL-28 melanoma = tested on: SK-MEL-28 melanoma
SF-268 CNS = tested on: SF-268 CNS
TK-10 renal = tested on: TK-10 renal
A549 NSCLC = tested on: A549 NSCLC
MCF7 breast = tested on: MCF7 breast
OVCAR-4 ovarian = tested on: OVCAR-4 ovarian
CAKI-1 renal = tested on: CAKI-1 renal
MDA-MB-468 breast = tested on: MDA-MB-468 breast

COc1ccc(CN2C3CC2CN(c2ccc(-c4cc(OCC(C)(C)O)cn5ncc(C#N)c45)cn2)C3)cn1
15.4 µM: TGI (NCI-H226 lung)
9.04 µM: TGI (MDA-MB-468 breast)
3.76 µM: TGI (CCRF-CEM leukemia)
38.1 µM: TGI (HOP-92 NSCLC)
6.86 µM: TGI (SF-539 CNS)
> 45.8 µM: TGI (SN12C renal)
11.5 µM: TGI (HL-60(TB) leukemia)
inactive: GI50 (PC-3 prostate) > 100 µM | GI50 (HS 578T breast) 6.92 µM | GI50 (NCI-H522 lung) 7.9 µM | GI50 (UO-31 renal) > 100 µM | GI50 (MOLT-4 leukemia) 1.58 µM | GI50 (SK-MEL-5 melanoma) > 31.6 µM | GI50 (CCRF-CEM leukemia) 1.99 µM | GI50 (KM12 colon) > 100 µM | GI50 (RPMI-8226 leukemia) > 28.8 µM | GI50 (UACC-257 melanoma) > 31.6 µM | GI50 (SK-OV-3 ovarian) 24.3 µM | GI50 (ACHN renal) 25.4 µM | GI50 (EKVX NSCLC) > 31.6 µM | GI50 (NCI-H23 lung) 8.4 µM | GI50 (IGROV1 ovarian) 7.33 µM | GI50 (RXF 393 renal) 4.29 µM | GI50 (NCI-H226 lung) 2.94 µM | GI50 (SR leukemia) 1.64 µM | GI50 (OVCAR-5 ovarian) > 100 µM | GI50 (HOP-92 NSCLC) 2.92 µM | GI50 (BT-549 breast) 1.87 µM | GI50 (DU-145 prostate) 28.3 µM | GI50 (NCI-H460 NSCLC) 5.11 µM | GI50 (SF-539 CNS) 2.08 µM | GI50 (UACC-62 melanoma) 98.7 µM | GI50 (MALME-3M melanoma) > 28.9 µM | GI50 (SW-620 colon) 4.99 µM | GI50 (U251 glioblastoma) > 31.6 µM | GI50 (786-0 renal) 57.3 µM | GI50 (HOP-62 NSCLC) 8.51 µM | GI50 (NCI/ADR-RES ovarian) 21.4 µM | GI50 (HL-60(TB) leukemia) 4.36 µM | GI50 (M14 melanoma) > 82 µM | GI50 (SN12C renal) 2.44 µM | GI50 (LOX IMVI melanoma) 50.8 µM | GI50 (MDA-MB-435 melanoma) > 100 µM | GI50 (NCI-H322M lung) > 74 µM | GI50 (T-47D breast) > 31.6 µM | GI50 (OVCAR-3 ovarian) > 28.5 µM | GI50 (OVCAR-8 ovarian) 22.3 µM | GI50 (A498 renal) > 38.3 µM | GI50 (SNB-75 CNS) 1.85 µM | GI50 (HCT-15 colon) 9.55 µM | GI50 (SNB-19 CNS) > 100 µM | GI50 (HCT-116 colon) 24.2 µM | GI50 (SF-295 CNS) 5.36 µM | GI50 (SK-MEL-28 melanoma) > 100 µM | GI50 (SF-268 CNS) > 26.8 µM | GI50 (TK-10 renal) > 31.6 µM | GI50 (A549 NSCLC) 7.53 µM | GI50 (MCF7 breast) > 31.6 µM | GI50 (OVCAR-4 ovarian) 5.26 µM | GI50 (CAKI-1 renal) 5.02 µM | GI50 (MDA-MB-468 breast) 5.75 µM
> 100 µM: TGI (PC-3 prostate) | TGI (UO-31 renal) | TGI (KM12 colon) | TGI (ACHN renal) | TGI (OVCAR-5 ovarian) | TGI (DU-145 prostate) | TGI (NCI-H460 NSCLC) | TGI (UACC-62 melanoma) | TGI (MALME-3M melanoma) | TGI (SW-620 colon) | TGI (786-0 renal) | TGI (NCI/ADR-RES ovarian) | TGI (M14 melanoma) | TGI (LOX IMVI melanoma) | TGI (MDA-MB-435 melanoma) | TGI (NCI-H322M lung) | TGI (OVCAR-3 ovarian) | TGI (A498 renal) | TGI (SNB-19 CNS) | TGI (HCT-116 colon) | TGI (SK-MEL-28 melanoma) | TGI (SF-268 CNS) | TGI (OVCAR-4 ovarian) | TGI (CAKI-1 renal)
27.8 µM: TGI (NCI-H23 lung)
7.68 µM: TGI (BT-549 breast)
> 31.6 µM: TGI (NCI-H522 lung) | TGI (SK-MEL-5 melanoma) | TGI (RPMI-8226 leukemia) | TGI (UACC-257 melanoma) | TGI (SK-OV-3 ovarian) | TGI (EKVX NSCLC) | TGI (U251 glioblastoma) | TGI (HOP-62 NSCLC) | TGI (T-47D breast) | TGI (OVCAR-8 ovarian) | TGI (HCT-15 colon) | TGI (TK-10 renal) | TGI (A549 NSCLC) | TGI (MCF7 breast)
3.24 µM: TGI (SR leukemia)
7.91 µM: TGI (RXF 393 renal)
9.56 µM: TGI (SF-295 CNS)
3.13 µM: TGI (MOLT-4 leukemia)
> 60 µM: TGI (IGROV1 ovarian)
7.29 µM: TGI (SNB-75 CNS)
> 50.1 µM: TGI (HS 578T breast)
